Laboratory results taken from patent US5498609A, “Benzoazepinyl compounds as oxytocin and vasopressin antagonists” (Otsuka Pharmaceutical Company, Limited, priority 1992, dated 1996).

What was measured:
[1] = molecular target: T1, Oxytocin receptor (Rattus norvegicus, UniProt P70536); assay: Oxytocin receptor binding assay ([3H]-oxytocin, rat uterine muscle membrane); details: for IC50: 25° C., one hour, pH 8.0; for inhibition at 10 µM: 10^-5 M test compound, read-out: Inhibitory Rate (%) at 10^-5 M (oxytocin receptor binding assay)
T1 construct: from tissue; host or cells: rat uterine muscle membrane (diethylstilbestrol-treated)
T1 sequence (P70536 1-388): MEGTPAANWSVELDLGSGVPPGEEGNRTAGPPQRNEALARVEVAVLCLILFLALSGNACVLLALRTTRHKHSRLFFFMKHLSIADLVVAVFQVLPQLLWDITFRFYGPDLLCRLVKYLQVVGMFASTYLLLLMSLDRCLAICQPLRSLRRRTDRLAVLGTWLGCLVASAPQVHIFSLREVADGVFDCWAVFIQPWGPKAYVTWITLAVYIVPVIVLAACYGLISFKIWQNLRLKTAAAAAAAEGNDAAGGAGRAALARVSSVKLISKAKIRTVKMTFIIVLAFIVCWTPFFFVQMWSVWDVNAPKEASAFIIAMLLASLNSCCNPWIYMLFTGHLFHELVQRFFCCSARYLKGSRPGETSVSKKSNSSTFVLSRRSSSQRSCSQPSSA
Protocol: Experiment 3: Oxytocin receptor binding assay
According to the method of W. Y. Chan et al. [Endocrinology, 126, 2095-2101 (1990)], uterine muscle is taken out from a rat which has previously been injected subcutaneously with diethylstilbestrol the day before, and homogenized, which is used as a membrane preparation. The membrane preparation (0.2 mg), [^3 H]-oxytocin (100000 dpm, 10^-9 M), a test compound (10^-9 -10^-5 M) are incubated at 25° C. for one hour in 100 mM Tris-HCl buffer (pH 8.0, 250 μl) containing a 5 mM MgCl2, 1 mM MEDTA and 0.1% BSA. The mixture is filtered through the glass filter (GF/B) so as to separate the membrane preparation binding with [^3 H]-oxytocin, and then, washed twice with the buffer (5 ml). This glass filter is put into a vial and mixed with Aquasole (liquid scintillation cocktail). The amount of [^3 H]-oxytocin binding with the membrane is measured by liquid scintillation counter. The rate of the inhibitory effect of the test compound is estimated according to the following equation.
Inhibitory Rate (%)=100-[(C1 -B)/(C0 -B)]×100
C1 : The amount of [^3 H]-oxytocin binding with the membrane in the presence of a test compound (known amount)
C0 : The amount of [^3 H]-oxytocin binding with the membrane in the absence of a test compound
B: The amount of [^3 H]-oxytocin binding with the membrane in the presence of the excess amount of oxytocin (5×10^-6 M).
The results are expressed as IC50 value, which is the concentration of the test compound required to achieve the inhibitory rate in the rate of 50%.

[2] = molecular target: V1 receptor (Rattus norvegicus, UniProt P30560); assay: biochemical; details: rat liver plasma membrane, [3H]-Arg-vasopressin, 37° C., 10 minutes, pH 8.0; read-out: IC50 in V1 receptor binding assay
Protocol: Experiment 1: V1 receptor binding assay
Using rat liver plasma membrane preparations prepared according to Ichihara's method [cf: Akira Ichihara, J. Bio. Chem., 258, 9283 (1983)], the plasma membrane (50000 dpm, 2×10^-10 M) of [^3 H]-Arg-vasopressin and a test compound (60 μg, 10^-8 to 10^-4 M) are incubated at 37° C. for 10 minutes in 100 mM Tris-HCl buffer (pH: 8.0) (250 μl) containing 5 mM MgCl2, 1 mM EDTA and 0.1% BSA. After incubation, the mixture is filtered three times using the glass filter (GF/F) so as to separate the membrane preparation binding with vasopressin and then washed with the buffer (5 ml). This glass filter is taken out and mixed with liquid scintillation cocktail. The amount of [^3 H]-vasopressin binding with the membrane is measured by liquid scintillation counter and the rate of the inhibitory effect of the test compound is estimated according to the following equation. [formula] C1 : The amount of [^3 H]-vasopressin binding with the membrane in the presence of the test compound (known amount)
(§1) C0 : The amount of [^3 H]-vasopressin binding with the membrane in the absence of the test compound
(§2) B1 : The amount of [^3 H]-vasopressin binding with the membrane in the presence of the excess amount of vasopressin (10^-6 M)
(§3) The results are expressed as IC50 value, which is the concentration of the test compound required to achieve the inhibitory effect in the rate of 50%.

[3] = molecular target: T2, V2 receptor (Rattus norvegicus, UniProt Q00788); assay: biochemical; details: rat kidney plasma membrane, [3H]-Arg-vasopressin, 4° C., pH 8.0, read-out: IC50 in V2 receptor binding assay
T2 construct: Using rat kidney plasma membrane preparations; from tissue; host or cells: rat kidney plasma membrane
Protocol: Experiment 2: V2 receptor binding assay
Using rat kidney plasma membrane preparations prepared according to O. Hechter's method [cf: J. Bio. Chem., 253, 3211 (1978)], the plasma membrane (100000 dpm, 4×10^-10 M) of [^3 H]-Arg-vasopressin and a test compound (0.6 mg, 10^-10 to 10^-5 M) are incubated at 4° C. for 3 hours in 100 mM Tris-HCl buffer (pH: 8.0) (250 μl) containing 5 mM MgCl2, 1 mM EDTA and 0.1% BSA. After incubation, the mixture is filtered using the glass filter (GF/F) so as to separate the membrane preparation binding with vasopressin and then washed twice with the buffer (each 5 ml). This glass filter is taken out and mixed with liquid scintillation cocktail. The amount of [^3 H]-vasopressin binding with the membrane is measured by liquid scintillation counter and the rate of the inhibitory effect of the test compound is estimated according to the following equation. [formula] C1 : The amount of [^3 H]-vasopressin binding with the membrane in the presence of the test compound (known amount)
as §1, §2, §3

Sequence of V1 receptor (P30560 whole entry): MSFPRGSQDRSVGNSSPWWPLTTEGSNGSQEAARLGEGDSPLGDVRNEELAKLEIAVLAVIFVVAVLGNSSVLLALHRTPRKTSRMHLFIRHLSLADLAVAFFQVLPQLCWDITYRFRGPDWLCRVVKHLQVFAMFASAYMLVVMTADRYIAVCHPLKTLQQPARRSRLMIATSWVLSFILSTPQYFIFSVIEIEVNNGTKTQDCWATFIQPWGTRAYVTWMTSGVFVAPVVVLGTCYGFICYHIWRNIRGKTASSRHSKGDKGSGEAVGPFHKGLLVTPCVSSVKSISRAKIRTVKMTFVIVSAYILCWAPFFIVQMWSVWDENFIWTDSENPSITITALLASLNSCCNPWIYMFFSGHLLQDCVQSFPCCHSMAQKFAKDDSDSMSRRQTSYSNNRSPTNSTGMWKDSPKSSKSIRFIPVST
T2 sequence (Q00788 whole entry): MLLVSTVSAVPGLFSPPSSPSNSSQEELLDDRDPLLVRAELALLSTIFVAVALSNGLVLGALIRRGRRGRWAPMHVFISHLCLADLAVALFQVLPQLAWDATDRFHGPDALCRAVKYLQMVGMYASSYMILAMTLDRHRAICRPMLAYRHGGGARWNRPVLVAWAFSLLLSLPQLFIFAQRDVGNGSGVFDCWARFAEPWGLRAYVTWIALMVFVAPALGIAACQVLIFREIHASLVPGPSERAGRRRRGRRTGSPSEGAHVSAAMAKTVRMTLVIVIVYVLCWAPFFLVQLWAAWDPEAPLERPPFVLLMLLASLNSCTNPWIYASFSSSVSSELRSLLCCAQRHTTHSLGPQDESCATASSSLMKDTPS

CN1CCN(C(=O)CCCOc2ccccc2C(=O)Nc2ccc(C(=O)N3CCCCc4cc(Cl)ccc43)cn2)CC1 [Compound of Ex. 89]
IC50 [1]: 7300 nM

Cc1ccccc1C(=O)Nc1ccc(C(=O)N2CCCN(C)c3cc(Cl)ccc32)cn1 [Compound of Ex. 52]
IC50 [2]: 51 nM | IC50 [3]: 22 nM | IC50 [1]: 1600 nM

COC1CCCN(C(=O)c2ccc(NC(=O)c3ccccc3Cl)nc2)c2ccc(Cl)cc21 (centres unmarked) [Compound of Ex. 72]
IC50 [1]: 440 nM

O=C(Nc1ccc(C(=O)N2CCCC(CC(=O)N3CCCC3)c3cc(Cl)ccc32)cn1)c1ccccc1Cl (centres unmarked) [Compound of Ex. 114]
IC50 [2]: 11 nM | IC50 [3]: 3 nM | IC50 [1]: 320 nM

O=C(Nc1ccc(C(=O)N2CCCC(CCN3CCOCC3)c3cc(Cl)ccc32)cn1)c1ccccc1Cl (centres unmarked) [Compound of Ex. 127]
IC50 [2]: 29 nM | IC50 [3]: 5.9 nM | IC50 [1]: 680 nM

O=C(Nc1ccc(C(=O)N2CCCCc3cc(Cl)ccc32)cn1)c1ccccc1OCCO [Compound of Ex. 83]
IC50 [2]: 71 nM | IC50 [3]: 430 nM | IC50 [1]: 6600 nM

CN1CCN(C(=O)CC2CCCN(C(=O)c3ccc(NC(=O)c4ccccc4Cl)nc3)c3ccc(Cl)cc32)CC1 (centres unmarked) [Compound of Ex. 107]
IC50 [1]: 410 nM

O=C(Nc1ccc(C(=O)N2CCCCc3cc(Cl)ccc32)cn1)c1ccccc1Br [Compound of Ex. 45]
IC50 [2]: 5 nM | IC50 [3]: 7 nM | IC50 [1]: 260 nM

Cc1ccccc1C(=O)Nc1ccc(C(=O)N2CCCC(OCCN(C)C)c3cc(Cl)ccc32)cn1 (centres unmarked) [Compound of Ex. 37, 7-chloro-5-(2-dimethylaminoethoxy)-1-[6-(2-methylbenzoylamino)nicotinoyl]-2,3,4,5-tetrahydro-1H-benzazepine]
IC50 [2]: 11 nM | IC50 [3]: 5 nM | IC50 [1]: 1140 nM

O=C(Nc1ccc(C(=O)N2CCCC(CCN3CCCC3)c3cc(Cl)ccc32)cn1)c1ccccc1Cl (centres unmarked) [Compound of Ex. 126, 7-chloro-5-[2-(1-pyrrolidinyl)ethyl]-1-[6-(2-chlorobenzoylamino)nicotinoyl]-2,3,4,5-tetrahydro-1H-benzazepine]
IC50 [2]: 19 nM | IC50 [3]: 5.3 nM | IC50 [1]: 1320 nM

CCOC(=O)COc1ccccc1C(=O)Nc1ccc(C(=O)N2CCCCc3cc(Cl)ccc32)cn1 [Compound of Ex. 82]
IC50 [1]: 9700 nM

Cc1ccccc1C(=O)Nc1ccc(C(=O)N2CCCC(NC3CC3)c3cc(Cl)ccc32)cn1 (centres unmarked) [Compound of Ex. 77]
IC50 [1]: 1800 nM

CNC1CCCN(C(=O)c2ccc(NC(=O)c3ccccc3Cl)nc2)c2ccc(Cl)cc21 (centres unmarked) [Compound of Ex. 80]
IC50 [1]: 1000 nM

NC(=O)COc1ccccc1C(=O)Nc1ccc(C(=O)N2CCCCc3cc(Cl)ccc32)cn1 [Compound of Ex. 97]
IC50 [2]: 5 nM | IC50 [3]: 160 nM | IC50 [1]: 1800 nM

CC(=O)NC1CCN(CCOc2ccccc2C(=O)Nc2ccc(C(=O)N3CCCCc4cc(Cl)ccc43)cn2)CC1 [Compound of Ex. 92]
IC50 [2]: 60 nM | IC50 [3]: 380 nM | inhibition at 10 µM [1]: 38%

CCN(CC)CCN(C)C(=O)CC1CCCN(C(=O)c2ccc(NC(=O)c3ccccc3Br)nc2)c2ccc(Cl)cc21 (centres unmarked) [Compound of Ex. 120]
IC50 [1]: 350 nM

O=C(Nc1ccc(C(=O)N2CCCCc3cc(Cl)ccc32)cn1)C1CCCCC1 [Compound of Ex. 46]
IC50 [1]: 360 nM

O=C(Nc1ccc(C(=O)N2CCCC(O)(CO)c3cc(Cl)ccc32)cn1)c1ccccc1Cl (centres unmarked) [Compound of Ex. 145]
IC50 [1]: 1200 nM

O=C(Nc1ccc(C(=O)N2CCCCc3cc(Cl)ccc32)cn1)c1ccccc1Cl [Compound of Ex. 44]
IC50 [2]: 8 nM | IC50 [3]: 11 nM | IC50 [1]: 307 nM

Cc1ccccc1C(=O)Nc1ccc(C(=O)N2CCCCc3cc(Cl)ccc32)cn1 [Compound of Ex. 43]
IC50 [2]: 13 nM | IC50 [3]: 10 nM | IC50 [1]: 290 nM

Cc1ccccc1C(=O)Nc1ccc(C(=O)N2CCCC(CC(N)=O)c3cc(Cl)ccc32)cn1 (centres unmarked) [Compound of Ex. 40]
IC50 [2]: 44 nM | IC50 [3]: 9 nM | IC50 [1]: 740 nM

C=CCOC1CCCN(C(=O)c2ccc(NC(=O)c3ccccc3Br)nc2)c2ccc(Cl)cc21 (centres unmarked) [Compound of Ex. 76]
IC50 [2]: 27 nM | IC50 [3]: 8 nM | IC50 [1]: 1500 nM

O=C(O)CC1CCCN(C(=O)c2ccc(NC(=O)c3ccccc3Br)nc2)c2ccc(Cl)cc21 (centres unmarked) [Compound of Ex. 101]
IC50 [2]: 490 nM | IC50 [3]: 33 nM | IC50 [1]: 3500 nM

CC(C)NCCOc1ccccc1C(=O)Nc1ccc(C(=O)N2CCCCc3cc(Cl)ccc32)cn1 [Compound of Ex. 91]
inhibition at 10 µM [1]: 38%

CN1CCN(C(=O)COc2ccccc2C(=O)Nc2ccc(C(=O)N3CCCCc4cc(Cl)ccc43)cn2)CC1 [Compound of Ex. 88, 7-chloro-1-{6-[2-(4-methyl-1-piperazinyl)-carbonylmethoxybenzoylamino]nicotinoyl}-2,3,4,5-tetrahydro-1H-benzazepine]
IC50 [2]: 26 nM | IC50 [3]: 200 nM | IC50 [1]: 4500 nM

O=C1c2ccccc2OCCN1c1ccc(C(=O)N2CCCCc3cc(Cl)ccc32)cn1 [Compound of Ex. 94, 7-chloro-1-[6-(6,7-benzo-1-oxo-4-azepin-5-on-4-yl)nicotinoyl]-2,3,4,5-tetrahydro-1H-benzazepine]
IC50 [2]: 42 nM | IC50 [3]: 36 nM | IC50 [1]: 840 nM

Cc1ccccc1C(=O)Nc1ccc(C(=O)N2CCCC(CC(=O)N3CCCCC3)c3cc(Cl)ccc32)cn1 (centres unmarked) [Compound of Ex. 104]
IC50 [2]: 38 nM | IC50 [3]: 24 nM | IC50 [1]: 510 nM

CC(=O)OCCC1CCCN(C(=O)c2ccc(NC(=O)c3ccccc3Cl)nc2)c2ccc(Cl)cc21 (centres unmarked) [Compound of Ex. 122, 7-chloro-5-(2-acetyloxyethyl)-1-[6-(2-chlorobenzoylamino)nicotinoyl]-2,3,4,5-tetrahydro-1H-benzazepine]
IC50 [2]: 15 nM | IC50 [3]: 3 nM | IC50 [1]: 640 nM

Cc1ccccc1C(=O)Nc1ccc(C(=O)N2CCCC(CCO)c3cc(Cl)ccc32)cn1 (centres unmarked) [Compound of Ex. 123]
IC50 [2]: 20 nM | IC50 [3]: 3.2 nM | IC50 [1]: 320 nM

O=C(O)CCCOc1ccccc1C(=O)Nc1ccc(C(=O)N2CCCCc3cc(Cl)ccc32)cn1 [Compound of Ex. 86]
inhibition at 10 µM [1]: 17%

CCNC(=O)CC1CCCN(C(=O)c2ccc(NC(=O)c3ccccc3Cl)nc2)c2ccc(Cl)cc21 (centres unmarked) [Compound of Ex. 112]
IC50 [2]: 9 nM | IC50 [3]: 3 nM | IC50 [1]: 280 nM
